Reference: patent US8268821B2, “Methods and compositions” (priority 2003, dated 2012)

Tested on: cancer-related neuropathic pain
Assay: Open label dose escalation study of flupirtine, case studies JE and RM
Conditions: for WHO PERFORMANCE STATUS: 0=fully active, 4=completely disabled; for WHO PERFORMANCE STATUS / SCORE SLEEP / SCORE POOR CONCENTRATION: day 1 baseline 3; for neuropathic dwascriminant function score: >0 = neuropathic, day 1 baseline 2.448; for freezing pain score / score for increased pain due to touch / score for increased pain due to weather changes / squeezing pain score: day 1 baseline 0; for burning pain score: day 1 baseline 90; for electric pain score / for shooting pain score / numbness score / score for overly sensitive to touch / tingling pain score / unpleasant pain score: day 1 baseline 95; for overwhelming pain score: day 1 baseline 98; for SCORE MOOD / SCORE RELATIONSHIPS / SCORE SLEEP / SCORE GENERAL ACTIVITY / SCORE WALKING / SCORE ENJOYMENT / SCORE TOTAL ACTIVITY: pain interference 1-10; for SCORE MOOD / SCORE RELATIONSHIPS / SCORE CONSTIPATION / SCORE INDIGESTION / LEAST PAIN LAST 24 HRS / PAIN SCORE RIGHT NOW: day 1 baseline 1; for SCORE GENERAL ACTIVITY: day 1 baseline 5; for SCORE WALKING: day 1 baseline 7; for SCORE ENJOYMENT / SCORE TOTAL ACTIVITY / AVERAGE PAIN LAST 24 HOURS: day 1 baseline 8; for SCORE CONSTIPATION / SCORE INDIGESTION / SCORE NAUSEA / SCORE UN[…] GAIT / SCORE POOR CONCENTRATION / SCORE DROWSINESS / SCORE POOR APPETITE: scale 1-4; for SCORE NAUSEA / SCORE UN[…] GAIT: day 1 baseline 2; for SCORE DROWSINESS / SCORE POOR APPETITE: day 1 baseline 4; for LEAST PAIN LAST 24 HRS / PAIN SCORE RIGHT NOW / AVERAGE PAIN LAST 24 HOURS / WORST PAIN SCORE LAST 24 HOURS: scale to 10; for WORST PAIN SCORE LAST 24 HOURS: day 1 baseline 10
[1] = JE day 2, flupirtine 100 mg qid
[2] = JE day 3, flupirtine 100 mg qid
[3] = JE day 4, flupirtine 200 mg qid
[4] = JE day 5, flupirtine 100 mg qid

With `CCOC(=O)Nc1ccc(NCc2ccc(F)cc2)nc1N` [flupirtine] the “WHO PERFORMANCE STATUS” value [1] was 3, the “neuropathic dwascriminant function score” value [1] was −1.238 and the freezing pain score [1] was 0. For the same compound, the “score for increased pain due to touch” value [1] was 0, the “score for increased pain due to weather changes” value [1] was 0 and the squeezing pain score [1] was 0. For the same compound, the burning pain score [1] was 20, the electric pain score [1] was 0 and the “for shooting pain score” value [1] was 10. For the same compound, the numbness score [1] was 0, the “score for overly sensitive to touch” value [1] was 0 and the tingling pain score [1] was 0. For the same compound, the unpleasant pain score [1] was 0, the overwhelming pain score [1] was 0 and the “SCORE MOOD” value [1] was 1. The “SCORE RELATIONSHIPS” value [1] was 1, the “SCORE SLEEP” value [1] was 1 and the “SCORE GENERAL ACTIVITY” value [1] was 1. For the same compound, the “SCORE WALKING” value [1] was 1, the “SCORE ENJOYMENT” value [1] was 1 and the “SCORE TOTAL ACTIVITY” value [1] was 1. For the same compound, the “SCORE CONSTIPATION” value [1] was 3, the “SCORE INDIGESTION” value [1] was 1 and the “SCORE NAUSEA” value [1] was 1. For the same compound, the “SCORE UN[…] GAIT” value [1] was 1, the “SCORE POOR CONCENTRATION” value [1] was 1 and the “SCORE DROWSINESS” value [1] was 4. The “SCORE POOR APPETITE” value [1] was 1, the “LEAST PAIN LAST 24 HRS” value [1] was 0 and the “PAIN SCORE RIGHT NOW” value [1] was 0. For the same compound, the “AVERAGE PAIN LAST 24 HOURS” value [1] was 2, the “WORST PAIN SCORE LAST 24 HOURS” value [1] was 2 and the “WHO PERFORMANCE STATUS” value [2] was 2. For the same compound, the “neuropathic dwascriminant function score” value [2] was −1.408, the freezing pain score [2] was 0 and the “score for increased pain due to touch” value [2] was 0. For the same compound, the “score for increased pain due to weather changes” value [2] was 0, the squeezing pain score [2] was 0 and the burning pain score [2] was 0. For the same compound, the electric pain score [2] was 0, the “for shooting pain score” value [2] was 0 and the numbness score [2] was 0. The “score for overly sensitive to touch” value [2] was 0, the tingling pain score [2] was 0 and the unpleasant pain score [2] was 0. For the same compound, the overwhelming pain score [2] was 0, the “SCORE MOOD” value [2] was 1 and the “SCORE RELATIONSHIPS” value [2] was 1. For the same compound, the “SCORE SLEEP” value [2] was 1, the “SCORE GENERAL ACTIVITY” value [2] was 1 and the “SCORE WALKING” value [2] was 1. The “SCORE ENJOYMENT” value [2] was 1, the “SCORE TOTAL ACTIVITY” value [2] was 1 and the “SCORE CONSTIPATION” value [2] was 1. The “SCORE INDIGESTION” value [2] was 1, the “SCORE NAUSEA” value [2] was 1 and the “SCORE UN[…] GAIT” value [2] was 1. For the same compound, the “SCORE POOR CONCENTRATION” value [2] was 1, the “SCORE DROWSINESS” value [2] was 3 and the “SCORE POOR APPETITE” value [2] was 1. For the same compound, the “LEAST PAIN LAST 24 HRS” value [2] was 0, the “PAIN SCORE RIGHT NOW” value [2] was 0 and the “AVERAGE PAIN LAST 24 HOURS” value [2] was 0. For the same compound, the “WORST PAIN SCORE LAST 24 HOURS” value [2] was 0, the “WHO PERFORMANCE STATUS” value [3] was 3 and the “neuropathic dwascriminant function score” value [3] was −1.408. For the same compound, the freezing pain score [3] was 0, the “score for increased pain due to touch” value [3] was 0 and the “score for increased pain due to weather changes” value [3] was 0. For the same compound, the squeezing pain score [3] was 0, the burning pain score [3] was 0 and the electric pain score [3] was 0. For the same compound, the “for shooting pain score” value [3] was 0, the numbness score [3] was 0 and the “score for overly sensitive to touch” value [3] was 0. The tingling pain score [3] was 0, the unpleasant pain score [3] was 0 and the overwhelming pain score [3] was 0. For the same compound, the “SCORE MOOD” value [3] was 1, the “SCORE RELATIONSHIPS” value [3] was 1 and the “SCORE SLEEP” value [3] was 1. For the same compound, the “SCORE WALKING” value [3] was 1, the “SCORE ENJOYMENT” value [3] was 1 and the “SCORE TOTAL ACTIVITY” value [3] was 1. For the same compound, the “SCORE CONSTIPATION” value [3] was 3, the “SCORE INDIGESTION” value [3] was 1 and the “SCORE NAUSEA” value [3] was 1. The “SCORE UN[…] GAIT” value [3] was 4, the “SCORE POOR CONCENTRATION” value [3] was 2 and the “SCORE DROWSINESS” value [3] was 4. For the same compound, the “SCORE POOR APPETITE” value [3] was 1, the “LEAST PAIN LAST 24 HRS” value [3] was 0 and the “PAIN SCORE RIGHT NOW” value [3] was 0. For the same compound, the “AVERAGE PAIN LAST 24 HOURS” value [3] was 0, the “WORST PAIN SCORE LAST 24 HOURS” value [3] was 0 and the “WHO PERFORMANCE STATUS” value [4] was 4. The “neuropathic dwascriminant function score” value [4] was −1.408, the freezing pain score [4] was 0 and the “score for increased pain due to touch” value [4] was 0. For the same compound, the “score for increased pain due to weather changes” value [4] was 0, the squeezing pain score [4] was 0 and the burning pain score [4] was 0. For the same compound, the electric pain score [4] was 0, the “for shooting pain score” value [4] was 0 and the numbness score [4] was 0. The “score for overly sensitive to touch” value [4] was 0, the tingling pain score [4] was 0 and the unpleasant pain score [4] was 0. For the same compound, the overwhelming pain score [4] was 0, the “SCORE MOOD” value [4] was 1 and the “SCORE RELATIONSHIPS” value [4] was 1. The “SCORE SLEEP” value [4] was 1 and the “SCORE GENERAL ACTIVITY” value [4] was 1.
